These results are taken from US9708270B2, “Substituted spiropiperidinyl compounds useful as GPR120 agonists” (Merck Sharp & Dohme Corp., priority 2012, dated 2017).

human GPR120, sequence (Q5NUL3 whole entry): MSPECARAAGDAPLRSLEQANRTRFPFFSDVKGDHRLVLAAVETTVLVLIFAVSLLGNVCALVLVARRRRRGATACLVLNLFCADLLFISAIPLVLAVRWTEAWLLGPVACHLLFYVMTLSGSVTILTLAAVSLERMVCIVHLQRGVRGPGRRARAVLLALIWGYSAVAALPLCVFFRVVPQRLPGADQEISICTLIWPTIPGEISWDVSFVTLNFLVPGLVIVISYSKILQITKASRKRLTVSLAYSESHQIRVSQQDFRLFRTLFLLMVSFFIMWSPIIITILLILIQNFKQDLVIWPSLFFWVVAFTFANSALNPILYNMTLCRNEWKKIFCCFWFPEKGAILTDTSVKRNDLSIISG

For one test, the target named is human GPR120 (Homo sapiens (Human), UniProt Q5NUL3). Kind of test: FLIPR assay: intracellular calcium in CHO cells expressing human GPR120. The format is cell-based. The conditions noted are these: FLIPR calcium assay, CHO cells expressing human GPR120, agonist action. On the procedure:
All compounds were tested under the FLIPR assay unless otherwise indicated.
Primers were synthesized in the domains on the opposite sides of the base sequences of the ORFs of the known GPCR and GPR120 in GenBank Accession NOs. […] The base sequences of the primers used are described below. The restriction enzymes, BamHI and EcoRI, recognition sites were introduced for subcloning, respectively.
As samples for PCR, human small intestine Marathon-ready cDNA (CLONTECH, current corporate name: TaKaRa) and cDMA obtained by reverse transcription of mouse BAT-derived RNA were used for human and mouse GPR120 receptor genes, respectively.
Using KOD Plus (TOYOBO) for PCR, 30 cycles of 94° C. for 2 minutes, 94° C. for 15 seconds, 55° C. for 30 seconds and 68° C. for 1 minute were carried out to effect reaction, followed by addition of 0.5 units of ExTaq (TaKaRa) and incubation at 72° C. for 10 minutes to carry out A-addition reaction to terminals. For mouse PCR, 35 cycles were carried out on the condition of a final DMSO concentration of 2%.
Cloning of amplified PCR products was carried out using pCR2.1-TOPO TA cloning kit (Invitrogen). For verification of base sequences, electrophoresis was carried out using BigDye Terminator Cycle Sequencing Ready Reaction Kit Ver.
The GPR120 receptor genes cloned into pCR2.1-TOPO vectors, into which the restriction enzymes, BamHI and EcoRI, recognition sites were introduced, were excised from the vectors by the enzymes and subcloned into the BamHI and EcoRI recognition sites of eukaryotic expression vector EF1/V5-His B (Invitrogen).
Test 2: Production of Expression Cells
Using Lipofectamine 2000 (Invitrogen), cDNA of GPR120 receptor was transfected into CHO/NFAT-BLA cells, and drug-resistant cells were isolated to obtain GPR120 stable expression strains. The GPR120-expressed CHO cells were cultured in DMEM/F12 medium containing 10% fetal bovine serum, 100 units/ml penicillin, 0.1 mg/ml streptomycin sulfate, 250 μg/ml Zeocin, 500 μg/mL Geneticin and 15 mM HEPES.
Test 3: Measurement of Intracellular Calcium Concentration
To the cells was added the test compound diluted with HBSS solution containing 20 mM HEPES and 2.5 mM probenecid. Variations in the intracellular calcium concentration were measured by Fluorescence Imaging Plate Reader (FLIPR; Molecular Devices) to examine the agonist action, and EC50 values were calculated. […]
Turning to `FC(F)(F)Oc1ccc(Cl)c(N2CCC3(CCC(Cc4nn[nH]n4)CO3)CC2)c1` (racemic) [Example 92, 3-((2H-tetrazol-5-yl)methyl)-9-(2-chloro-5-(trifluoromethoxy)phenyl)-1-oxa-9-azaspiro[5.5]undecane], the 50% effective concentration (EC50) – broadly, the concentration that produces a half-maximal response – stood at 2.63 µM.

Regarding `O=C(O)CC1COC2(CCN(c3cc(OC(F)(F)F)ccc3F)CC2)C1` (racemic) [Example 94, 2-(8-(2-fluoro-5-(trifluoromethoxy)phenyl)-1-oxa-8-azaspiro[4.5]decan-3-yl)acetic acid], the EC50 stood at 1.48 µM.

Turning to `CC1CC(CC(=O)O)CCC12CCN(c1cc(OC(F)(F)F)ccc1Cl)CC2` (single isomer, unassigned) [Example 89a, 2-(3-(2-Chloro-5-(trifluoromethoxy)phenyl)-7-methyl-3-azaspiro[5.5]undecan-9-yl)acetic acid], the EC50 amounted to 2.76 µM.

Regarding `CC1CC(CC(=O)O)CCC12CCN(c1cc(OC(F)(F)F)ccc1Cl)CC2` (single isomer, unassigned) [Example 89b, 2-(3-(2-Chloro-5-(trifluoromethoxy)phenyl)-7-methyl-3-azaspiro[5.5]undecan-9-yl)acetic acid], the 50% effective concentration (EC50) was determined as 3.13 µM.

On to `CC1CC(CC(=O)O)CCC12CCN(c1cc(OC(F)(F)F)ccc1Cl)CC2` (single isomer, unassigned) [Example 89c, 2-(3-(2-Chloro-5-(trifluoromethoxy)phenyl)-7-methyl-3-azaspiro[5.5]undecan-9-yl)acetic acid], for which the EC50 amounted to 2.49 µM.

As to `O=C(O)CC1CCC2(CCN(c3cc(OC(F)(F)F)ccc3Cl)CC2)OC1` (single isomer, unassigned) [Example 91A, (S)-2-(9-(2-chloro-5-(trifluoromethoxy)phenyl)-1-oxa-9-azaspiro[5.5]undecan-3-yl)acetic acid or (R)-2-(9-(2-chloro-5-(trifluoromethoxy)phenyl)-1-oxa-9-azaspiro[5.5]undecan-3-yl)acetic acid], the EC50 worked out at 0.636 µM.

In the case of `O=C(O)CC1CCC2(CCN(c3cc(OC(F)(F)F)ccc3Cl)CC2)OC1` (single isomer, unassigned) [Example 91B, (S)-2-(9-(2-chloro-5-(trifluoromethoxy)phenyl)-1-oxa-9-azaspiro[5.5]undecan-3-yl)acetic acid or (R)-2-(9-(2-chloro-5-(trifluoromethoxy)phenyl)-1-oxa-9-azaspiro[5.5]undecan-3-yl)acetic acid], the half-maximal effective concentration (EC50) stood at 1.02 µM.

As for `O=C(O)C[C@@H]1CCC2(CCN(c3cc(OC(F)(F)F)ccc3F)CC2)OC1` (single isomer, unassigned) [Example 93a, (R) or (S) 2-(9-(2-fluoro-5-(trifluoromethoxy)phenyl)-1-oxa-9-azaspiro[5.5]undecan-3-yl)acetic acid], the concentration for a half-maximal effect (EC50) was found to be 1.3 µM.

Take `O=C(O)C[C@@H]1CCC2(CCN(c3cc(OC(F)(F)F)ccc3F)CC2)OC1` (single isomer, unassigned) [Example 93b, (R) or (S) 2-(9-(2-fluoro-5-(trifluoromethoxy)phenyl)-1-oxa-9-azaspiro[5.5]undecan-3-yl)acetic acid]: the EC50 came to 0.75 µM.

Turning to `O=C(O)CC1CCC2(CC1)CCN(c1cc(C(F)(F)F)ccc1Cl)CC2` [Example 2, 2-(3-(2-chloro-5-(trifluoromethyl)phenyl)-3-azaspiro[5.5]undecan-9-y)acetic acid], the EC50 was found to be 0.9 µM.

Turning to `CC(C(=O)O)C1CCC2(CC1)CCN(c1cc(OC(F)(F)F)ccc1Cl)CC2` (centres unmarked) [Example 3, 2-(3-(2-chloro-5-(trifluoromethoxy)phenyl)-3-azaspiro[5.5]undecan-9-yl)propanoic acid], the concentration for a half-maximal effect (EC50) was 3.4 µM.

Take `O=C(O)CC1CCC2(CC1)CCN(c1cc(OC3CCCC3)ccc1Cl)CC2` [Example 5, 2-(3-(2-chloro-5-(cyclopentyloxy)phenyl)-3-azaspiro[5.5]undecan-9-yl)acetic acid]: the 50% effective concentration (EC50) turned out to be 1.1 µM.

Turning to `COc1cc(F)c(N2CCC3(CCC(CC(=O)O)CC3)CC2)cc1F` [Example 6], the EC50 worked out at 2.42 µM.

In the case of `O=C(O)CC1CCC2(CC1)CCN(c1cc(OC(F)(F)F)ccc1F)CC2` [Example 7], the EC50 was 0.41 µM.

For the compound `COc1ccc(Cl)c(N2CCC3(CCC(CC(=O)O)CC3)CC2)c1` [Example 8], the concentration giving a half-maximal response (EC50) amounted to 1.67 µM.

With `Cc1ccc(Cl)c(N2CCC3(CCC(CC(=O)O)CC3)CC2)c1` [Example 9], the 50% effective concentration (EC50) came out at 2.18 µM.

As for `O=C(O)CC1CCC2(CC1)CCN(c1cc([N+](=O)[O-])ccc1Cl)CC2` [Example 10], the EC50 worked out at 1.7 µM.

Consider `CC1(C)Cc2cc(Cl)cc(N3CCC4(CCC(CC(=O)O)CC4)CC3)c2O1` [Example 11], for which the EC50 was determined as 2.85 µM.

With `O=C(O)CC1CCC2(CC1)CCN(c1cc(F)ccc1C(F)F)CC2` [Example 12], the EC50 turned out to be 2.42 µM.

Consider `Cc1ccc(C#N)c(N2CCC3(CCC(CC(=O)O)CC3)CC2)c1` [Example 13], for which the EC50 was found to be 2.14 µM.

Consider `COc1ccc(Cl)cc1N1CCC2(CCC(CC(=O)O)CC2)CC1` [Example 14], for which the EC50 amounted to 3.1 µM.

With `COc1ccc(C(F)(F)F)cc1N1CCC2(CCC(CC(=O)O)CC2)CC1` [Example 15], the concentration for a half-maximal effect (EC50) was found to be 2.35 µM.

`O=C(O)CC1CCC2(CC1)CCN(c1cc(C(F)(F)F)ccc1F)CC2` [Example 16]: the EC50 stood at 0.652 µM.

For the compound `N#Cc1ccc(F)cc1N1CCC2(CCC(CC(=O)O)CC2)CC1` [Example 17], the EC50 is 2.36 µM.

In the case of `CC(C)Oc1ccc(Cl)c(N2CCC3(CCC(CC(=O)O)CC3)CC2)c1` [Example 18], the EC50 amounted to 0.53 µM.

For `Cc1cc(C)cc(N2CCC3(CCC(CC(=O)O)CC3)CC2)c1` [Example 19], the EC50 came out at 0.948 µM.

Regarding `CCC(=O)c1ccc(F)c(N2CCC3(CCC(CC(=O)O)CC3)CC2)c1` [Example 20], the EC50 was found to be 1.66 µM.

Take `O=C(O)CC1CCC2(CC1)CCN(c1cc(C(F)(F)F)ccc1C(F)(F)F)CC2` [Example 21]: the concentration giving a half-maximal response (EC50) turned out to be 3.27 µM.

On to `O=C(O)CC1CCC2(CC1)CCN(c1cc(C(F)F)cc(C(F)F)c1)CC2` [Example 22], for which the EC50 is 3.01 µM.

Turning to `CC(C)(C)c1cc(N2CCC3(CCC(CC(=O)O)CC3)CC2)cc(C(F)(F)F)c1` [Example 23], the EC50 worked out at 3.75 µM.

With `CC(C)c1cc(C#N)cc(N2CCC3(CCC(CC(=O)O)CC3)CC2)c1` [Example 24], the EC50 came out at 3.46 µM.

In the case of `N#Cc1cc(SC(F)(F)F)cc(N2CCC3(CCC(CC(=O)O)CC3)CC2)c1` [Example 25], the EC50 came out at 1.15 µM.

With `CSc1nc(N2CCC3(CCC(CC(=O)O)CC3)CC2)cc(C(F)(F)F)n1` [Example 26], the EC50 stood at 8.3 µM.

Regarding `O=C(O)CC1CCC2(CC1)CCN(c1cc(C(F)F)cc(C(F)F)n1)CC2` [Example 27], the EC50 was determined as 2.99 µM.

For the compound `Cc1cc(F)cc(N2CCC3(CCC(CC(=O)O)CC3)CC2)c1` [Example 28], the concentration for a half-maximal effect (EC50) worked out at 3.04 µM.

For `O=C(O)CC1CCC2(CC1)CCN(c1cc(F)cc(Cl)c1)CC2` [Example 29], the EC50 was 1.79 µM.

For the compound `O=C(O)CC1CCC2(CC1)CCN(c1cc(Cl)cc(Cl)c1)CC2` [Example 30], the 50% effective concentration (EC50) is 0.878 µM.

With `O=C(O)CC1CCC2(CC1)CCN(c1cc(F)cc(C(F)(F)F)c1)CC2` [Example 31], the EC50 came to 1.22 µM.

Consider `O=C(O)CC1CCC2(CC1)CCN(c1cc(C(F)(F)F)cc(C(F)(F)F)c1)CC2` [Example 32], for which the concentration for a half-maximal effect (EC50) stood at 2.15 µM.

For `O=C(O)CC1CCC2(CC1)CCN(c1cc(C(F)(F)F)ccn1)CC2` [Example 33], the EC50 is 3.06 µM.

With `Cc1cc(N2CCC3(CCC(CC(=O)O)CC3)CC2)cc(C(F)(F)F)c1` [Example 34], the concentration giving a half-maximal response (EC50) was found to be 0.671 µM.

Take `N#Cc1ccc(OC(F)(F)F)cc1N1CCC2(CCC(CC(=O)O)CC2)CC1` [Example 35]: the half-maximal effective concentration (EC50) is 0.431 µM.

As to `O=C(O)CC1CCC2(CC1)CCN(c1cc(Cl)cc(C(F)(F)F)c1)CC2` [Example 36], the 50% effective concentration (EC50) amounted to 0.832 µM.

With `Cc1cc(F)c(Cl)c(N2CCC3(CCC(CC(=O)O)CC3)CC2)c1` [Example 37], the EC50 came out at 2.17 µM.

For the compound `O=C(O)CC1CCC2(CC1)CCN(c1cc(F)cc(Cl)c1F)CC2` [Example 38], the concentration giving a half-maximal response (EC50) came to 2.15 µM.

On to `O=C(O)CC1CCC2(CC1)CCN(c1cc(Cl)cc(F)c1F)CC2` [Example 39], for which the EC50 is 1.8 µM.

For `Cc1cc(Cl)cc(N2CCC3(CCC(CC(=O)O)CC3)CC2)c1C#N` [Example 40], the EC50 is 2.54 µM.

Take `CSc1ccc(OC(F)(F)F)cc1N1CCC2(CCC(CC(=O)O)CC2)CC1` [Example 41]: the 50% effective concentration (EC50) was 1.69 µM.

`Cc1ccc(C(F)(F)F)cc1N1CCC2(CCC(CC(=O)O)CC2)CC1` [Example 42]: the 50% effective concentration (EC50) turned out to be 0.749 µM.

Still in this test, the particulars now being: at 8300 nM; 100% activation defined by reference compound of U.S. Pat. No. 8,367,708.
Take `CSc1nc(N2CCC3(CCC(CC(=O)O)CC3)CC2)cc(C(F)(F)F)n1` [Example 26]: the “Human GPR120 % activation” value was determined as 62%.
